Test results published in ChEMBL document CHEMBL3351767, “The discovery of Polo-like kinase 4 inhibitors: design and optimization of spiro[cyclopropane-1,3'[3H]indol]-2'(1'H).ones as orally bioavailable antitumor agents” (J Med Chem, 2015).
Values after ≈ are worked out from the molar mass of the structure shown.

Key:
MDA-MB-468 [1] = assay: Antitumor activity against human MDA-MB-468 cells xenografted in mouse assessed as tumor growth inhibition at 50 mg/kg, ip QD for 21 days; assay type: functional, organism-based; parameters: dose 50 mg/kg
[2] = molecular target: T1, Serine/threonine-protein kinase PLK4 (Homo sapiens, UniProt O00444); assay: Inhibition of human N-terminal GST-tagged PLK4 (1 to 391 residues) expressed in Escherichia coli incubated for 30 mins by ELISA method
T1 sequence (O00444 whole entry): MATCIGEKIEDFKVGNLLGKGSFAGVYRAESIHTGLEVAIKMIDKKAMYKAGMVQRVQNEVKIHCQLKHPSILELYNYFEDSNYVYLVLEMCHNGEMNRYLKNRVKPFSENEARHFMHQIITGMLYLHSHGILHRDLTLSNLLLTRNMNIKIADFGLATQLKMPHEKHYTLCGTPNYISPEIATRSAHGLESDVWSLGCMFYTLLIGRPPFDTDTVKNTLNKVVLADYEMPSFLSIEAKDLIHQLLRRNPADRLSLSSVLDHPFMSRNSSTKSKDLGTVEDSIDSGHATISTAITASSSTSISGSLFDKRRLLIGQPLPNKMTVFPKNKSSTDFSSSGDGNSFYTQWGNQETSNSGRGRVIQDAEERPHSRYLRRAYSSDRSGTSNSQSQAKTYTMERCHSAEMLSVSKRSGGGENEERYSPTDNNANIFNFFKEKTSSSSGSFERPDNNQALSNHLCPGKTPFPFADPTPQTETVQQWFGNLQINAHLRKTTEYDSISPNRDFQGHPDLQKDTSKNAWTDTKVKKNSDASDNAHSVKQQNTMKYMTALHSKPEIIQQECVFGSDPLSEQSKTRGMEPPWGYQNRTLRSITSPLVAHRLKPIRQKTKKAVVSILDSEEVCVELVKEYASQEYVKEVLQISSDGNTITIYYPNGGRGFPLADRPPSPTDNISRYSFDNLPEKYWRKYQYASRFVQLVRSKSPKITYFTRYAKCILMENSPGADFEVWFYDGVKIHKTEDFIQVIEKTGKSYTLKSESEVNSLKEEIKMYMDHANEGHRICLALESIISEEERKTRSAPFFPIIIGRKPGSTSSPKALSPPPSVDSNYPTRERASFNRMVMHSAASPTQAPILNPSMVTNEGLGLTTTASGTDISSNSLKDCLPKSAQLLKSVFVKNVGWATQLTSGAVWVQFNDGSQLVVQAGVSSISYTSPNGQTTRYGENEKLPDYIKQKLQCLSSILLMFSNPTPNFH

[3] = molecular target: T2, Receptor-type tyrosine-protein kinase FLT3 (Homo sapiens, UniProt P36888); assay: Inhibition of FLT3 (unknown origin) by FRET-based homogeneous assay
T2 sequence (P36888 whole entry): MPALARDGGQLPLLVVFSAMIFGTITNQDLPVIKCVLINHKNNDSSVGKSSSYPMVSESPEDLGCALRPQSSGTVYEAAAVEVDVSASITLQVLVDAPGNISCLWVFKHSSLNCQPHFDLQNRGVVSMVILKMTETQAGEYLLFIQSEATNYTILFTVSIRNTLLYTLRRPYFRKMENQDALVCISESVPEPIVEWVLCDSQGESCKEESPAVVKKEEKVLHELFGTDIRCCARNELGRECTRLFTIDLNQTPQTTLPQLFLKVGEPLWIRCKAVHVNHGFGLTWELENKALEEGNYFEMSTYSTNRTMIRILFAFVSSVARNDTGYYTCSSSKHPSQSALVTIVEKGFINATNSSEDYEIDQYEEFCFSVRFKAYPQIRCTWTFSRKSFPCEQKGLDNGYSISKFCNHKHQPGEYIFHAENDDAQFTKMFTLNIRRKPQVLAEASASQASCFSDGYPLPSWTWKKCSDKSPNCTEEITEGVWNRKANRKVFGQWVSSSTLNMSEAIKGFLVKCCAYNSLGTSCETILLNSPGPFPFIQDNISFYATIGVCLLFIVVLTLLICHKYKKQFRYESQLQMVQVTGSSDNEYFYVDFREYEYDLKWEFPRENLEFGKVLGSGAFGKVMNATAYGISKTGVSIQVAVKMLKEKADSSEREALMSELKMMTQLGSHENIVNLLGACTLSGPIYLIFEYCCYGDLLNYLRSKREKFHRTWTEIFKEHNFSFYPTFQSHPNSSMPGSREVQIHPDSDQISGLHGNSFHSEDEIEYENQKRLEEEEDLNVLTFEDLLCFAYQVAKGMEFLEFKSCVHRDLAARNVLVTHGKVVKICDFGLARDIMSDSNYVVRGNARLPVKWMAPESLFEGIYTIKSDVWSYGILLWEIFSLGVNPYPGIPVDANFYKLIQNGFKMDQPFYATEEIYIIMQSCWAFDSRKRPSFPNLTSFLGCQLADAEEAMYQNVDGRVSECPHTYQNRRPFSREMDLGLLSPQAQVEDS

[4] = molecular target: Vascular endothelial growth factor receptor 2 (Homo sapiens, UniProt P35968); assay: Inhibition of KDR (unknown origin) by FRET-based homogeneous assay
Chain of Vascular endothelial growth factor receptor 2 (P35968 whole entry): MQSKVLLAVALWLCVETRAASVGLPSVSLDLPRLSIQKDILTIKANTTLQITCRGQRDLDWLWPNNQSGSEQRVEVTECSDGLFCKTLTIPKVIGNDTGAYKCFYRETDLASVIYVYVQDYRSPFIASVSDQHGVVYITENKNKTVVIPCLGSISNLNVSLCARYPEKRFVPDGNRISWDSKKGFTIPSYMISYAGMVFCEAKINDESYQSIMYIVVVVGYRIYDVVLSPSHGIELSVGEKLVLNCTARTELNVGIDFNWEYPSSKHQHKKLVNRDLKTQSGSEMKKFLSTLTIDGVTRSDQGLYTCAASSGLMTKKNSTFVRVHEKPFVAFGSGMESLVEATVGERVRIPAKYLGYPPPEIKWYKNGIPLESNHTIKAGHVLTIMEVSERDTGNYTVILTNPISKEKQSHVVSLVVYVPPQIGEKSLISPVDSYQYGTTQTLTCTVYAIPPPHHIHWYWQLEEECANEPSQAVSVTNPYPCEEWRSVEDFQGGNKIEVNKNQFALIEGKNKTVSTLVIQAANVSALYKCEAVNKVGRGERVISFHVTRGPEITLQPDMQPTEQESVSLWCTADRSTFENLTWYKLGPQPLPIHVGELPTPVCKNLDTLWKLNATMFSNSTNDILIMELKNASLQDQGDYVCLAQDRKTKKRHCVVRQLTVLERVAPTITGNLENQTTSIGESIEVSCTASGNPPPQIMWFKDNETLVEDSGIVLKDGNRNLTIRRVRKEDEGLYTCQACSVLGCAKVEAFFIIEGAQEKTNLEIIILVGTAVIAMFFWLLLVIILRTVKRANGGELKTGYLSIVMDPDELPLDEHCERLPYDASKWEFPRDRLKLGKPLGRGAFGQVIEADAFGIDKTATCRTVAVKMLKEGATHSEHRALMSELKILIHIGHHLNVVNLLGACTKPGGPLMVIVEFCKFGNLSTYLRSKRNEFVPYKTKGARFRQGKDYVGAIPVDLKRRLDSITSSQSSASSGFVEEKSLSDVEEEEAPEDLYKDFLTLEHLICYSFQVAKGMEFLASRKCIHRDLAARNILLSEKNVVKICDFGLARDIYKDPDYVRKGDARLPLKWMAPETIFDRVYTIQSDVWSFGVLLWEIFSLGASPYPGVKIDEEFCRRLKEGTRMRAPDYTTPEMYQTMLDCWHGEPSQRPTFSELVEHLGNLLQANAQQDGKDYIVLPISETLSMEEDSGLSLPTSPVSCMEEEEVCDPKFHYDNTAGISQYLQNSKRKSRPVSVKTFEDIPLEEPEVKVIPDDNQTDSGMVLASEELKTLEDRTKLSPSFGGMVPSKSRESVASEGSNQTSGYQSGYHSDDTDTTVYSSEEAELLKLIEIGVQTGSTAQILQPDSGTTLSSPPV

CYP1A2 = molecular target: T3, CYP1A2 (Homo sapiens, UniProt P05177); assay: (§1) Inhibition of CYP1A2 (unknown origin) using CEC substrate after 15 mins by fluorescence assay; assay type: ADME; settings: probe CEC
T3 sequence (P05177 whole entry): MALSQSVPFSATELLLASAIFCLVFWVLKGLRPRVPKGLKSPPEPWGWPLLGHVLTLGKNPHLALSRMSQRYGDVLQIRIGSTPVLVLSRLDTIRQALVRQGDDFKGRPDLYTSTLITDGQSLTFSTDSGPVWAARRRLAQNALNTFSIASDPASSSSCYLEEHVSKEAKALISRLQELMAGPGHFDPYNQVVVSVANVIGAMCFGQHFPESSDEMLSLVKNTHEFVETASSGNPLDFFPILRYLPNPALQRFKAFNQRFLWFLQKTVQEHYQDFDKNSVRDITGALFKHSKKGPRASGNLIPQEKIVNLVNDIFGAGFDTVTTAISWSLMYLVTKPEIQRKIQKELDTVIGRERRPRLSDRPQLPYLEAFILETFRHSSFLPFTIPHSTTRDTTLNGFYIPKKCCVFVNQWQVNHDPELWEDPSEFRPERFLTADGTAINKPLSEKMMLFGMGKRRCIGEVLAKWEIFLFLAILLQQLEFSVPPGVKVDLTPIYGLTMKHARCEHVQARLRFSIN

Cytochrome P450 2D6 = Cytochrome P450 2D6 (Homo sapiens, UniProt P10635); assay: (§2) Inhibition of CYP2D6 (unknown origin) using AMMC substrate after 45 mins by fluorescence assay; assay type: ADME
Chain of Cytochrome P450 2D6 (P10635 whole entry): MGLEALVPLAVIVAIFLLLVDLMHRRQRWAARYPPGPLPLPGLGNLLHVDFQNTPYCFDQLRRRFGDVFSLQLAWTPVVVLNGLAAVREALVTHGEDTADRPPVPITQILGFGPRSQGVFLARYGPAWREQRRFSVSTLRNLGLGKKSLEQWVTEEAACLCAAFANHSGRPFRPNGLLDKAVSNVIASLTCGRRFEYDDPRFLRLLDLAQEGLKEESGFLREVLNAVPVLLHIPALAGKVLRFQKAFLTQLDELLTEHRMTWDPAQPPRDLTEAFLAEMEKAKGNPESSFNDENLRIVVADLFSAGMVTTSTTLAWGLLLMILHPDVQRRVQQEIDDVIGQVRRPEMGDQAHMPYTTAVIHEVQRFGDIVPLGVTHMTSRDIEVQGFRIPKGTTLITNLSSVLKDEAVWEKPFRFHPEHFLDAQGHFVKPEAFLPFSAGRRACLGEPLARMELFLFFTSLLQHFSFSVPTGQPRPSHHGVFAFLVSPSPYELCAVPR

Cytochrome P450 3A4 = Cytochrome P450 3A4 (Homo sapiens, UniProt P08684); assay: Inhibition of CYP3A4 (unknown origin) using BFC substrate after 30 mins by fluorescence assay; assay type: ADME
Chain of Cytochrome P450 3A4 (P08684 whole entry): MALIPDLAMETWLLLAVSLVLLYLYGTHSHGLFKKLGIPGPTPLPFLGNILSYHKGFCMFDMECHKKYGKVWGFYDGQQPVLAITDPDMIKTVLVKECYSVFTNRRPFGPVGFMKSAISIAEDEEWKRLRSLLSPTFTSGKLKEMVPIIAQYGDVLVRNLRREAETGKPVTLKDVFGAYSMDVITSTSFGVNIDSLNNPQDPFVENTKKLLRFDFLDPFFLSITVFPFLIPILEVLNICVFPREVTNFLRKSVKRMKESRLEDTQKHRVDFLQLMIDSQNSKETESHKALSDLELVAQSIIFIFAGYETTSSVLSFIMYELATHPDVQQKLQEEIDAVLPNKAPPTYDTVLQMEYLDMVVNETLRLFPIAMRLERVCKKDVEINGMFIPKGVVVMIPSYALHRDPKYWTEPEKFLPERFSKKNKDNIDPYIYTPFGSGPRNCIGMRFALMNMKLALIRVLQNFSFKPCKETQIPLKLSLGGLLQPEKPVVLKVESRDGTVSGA

[5] = Aqueous solubility at pH 7.4; assay type: physicochemical; settings: buffer
[6] = Protein binding in plasma (unknown origin); assay type: ADME, cell-free; settings: read-out: PPB (converted)
[7] = Half life in mouse liver microsomes at 1 uM in presence of NADPH by LC-MS method; assay type: ADME
[8] = Half life in human liver microsomes at 1 uM in presence of NADPH by LC-MS method; assay type: ADME
[9] = Cmax in SCID mouse at 50 mg/kg, ip after 8 hrs by LCMS/MS method; assay type: ADME, organism-based; parameters: dose 50 mg/kg, route intraperitoneal; settings: in vivo
[10] = molecular target: Serine/threonine-protein kinase PLK1 (Homo sapiens, UniProt P53350); assay: Inhibition of PLK1 (unknown origin) by FRET-based homogeneous assay
Chain of Serine/threonine-protein kinase PLK1 (P53350 whole entry): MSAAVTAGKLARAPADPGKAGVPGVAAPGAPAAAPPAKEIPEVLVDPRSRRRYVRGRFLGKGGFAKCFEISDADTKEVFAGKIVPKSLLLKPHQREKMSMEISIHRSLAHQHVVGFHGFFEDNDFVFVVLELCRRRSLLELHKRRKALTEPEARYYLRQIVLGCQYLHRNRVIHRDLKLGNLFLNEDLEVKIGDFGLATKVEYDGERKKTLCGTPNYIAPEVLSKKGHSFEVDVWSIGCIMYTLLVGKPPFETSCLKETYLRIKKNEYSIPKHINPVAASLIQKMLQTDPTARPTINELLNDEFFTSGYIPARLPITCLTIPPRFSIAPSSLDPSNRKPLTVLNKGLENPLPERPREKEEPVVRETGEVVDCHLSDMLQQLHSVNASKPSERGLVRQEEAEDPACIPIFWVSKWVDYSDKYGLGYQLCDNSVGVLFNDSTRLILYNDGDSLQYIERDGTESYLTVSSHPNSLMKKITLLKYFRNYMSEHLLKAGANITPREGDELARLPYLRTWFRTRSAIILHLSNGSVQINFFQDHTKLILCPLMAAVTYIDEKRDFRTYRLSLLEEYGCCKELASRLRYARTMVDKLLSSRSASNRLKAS

[11] = molecular target: Serine/threonine-protein kinase PLK2 (Homo sapiens, UniProt Q9NYY3); assay: Inhibition of PLK2 (unknown origin) by FRET-based homogeneous assay
Chain of Serine/threonine-protein kinase PLK2 (Q9NYY3 whole entry): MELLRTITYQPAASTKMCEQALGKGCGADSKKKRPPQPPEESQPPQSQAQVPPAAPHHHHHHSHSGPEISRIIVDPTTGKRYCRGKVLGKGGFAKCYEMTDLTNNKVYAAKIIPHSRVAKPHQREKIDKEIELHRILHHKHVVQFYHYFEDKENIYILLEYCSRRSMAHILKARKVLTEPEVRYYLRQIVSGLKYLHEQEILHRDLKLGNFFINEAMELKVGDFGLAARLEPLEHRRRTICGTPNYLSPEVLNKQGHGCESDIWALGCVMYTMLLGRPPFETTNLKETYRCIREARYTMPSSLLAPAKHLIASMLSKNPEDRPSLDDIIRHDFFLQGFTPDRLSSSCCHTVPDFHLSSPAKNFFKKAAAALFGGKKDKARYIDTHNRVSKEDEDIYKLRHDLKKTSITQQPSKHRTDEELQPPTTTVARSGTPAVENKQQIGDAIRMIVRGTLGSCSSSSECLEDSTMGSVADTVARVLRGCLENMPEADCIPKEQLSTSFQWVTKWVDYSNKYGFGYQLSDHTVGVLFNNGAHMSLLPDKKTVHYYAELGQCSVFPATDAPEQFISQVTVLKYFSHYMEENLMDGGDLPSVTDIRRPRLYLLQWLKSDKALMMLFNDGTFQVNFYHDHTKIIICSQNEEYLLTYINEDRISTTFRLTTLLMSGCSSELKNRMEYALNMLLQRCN

[12] = molecular target: Serine/threonine-protein kinase PLK3 (Homo sapiens, UniProt Q9H4B4); assay: Inhibition of PLK3 (unknown origin) by FRET-based homogeneous assay
Chain of Serine/threonine-protein kinase PLK3 (Q9H4B4 whole entry): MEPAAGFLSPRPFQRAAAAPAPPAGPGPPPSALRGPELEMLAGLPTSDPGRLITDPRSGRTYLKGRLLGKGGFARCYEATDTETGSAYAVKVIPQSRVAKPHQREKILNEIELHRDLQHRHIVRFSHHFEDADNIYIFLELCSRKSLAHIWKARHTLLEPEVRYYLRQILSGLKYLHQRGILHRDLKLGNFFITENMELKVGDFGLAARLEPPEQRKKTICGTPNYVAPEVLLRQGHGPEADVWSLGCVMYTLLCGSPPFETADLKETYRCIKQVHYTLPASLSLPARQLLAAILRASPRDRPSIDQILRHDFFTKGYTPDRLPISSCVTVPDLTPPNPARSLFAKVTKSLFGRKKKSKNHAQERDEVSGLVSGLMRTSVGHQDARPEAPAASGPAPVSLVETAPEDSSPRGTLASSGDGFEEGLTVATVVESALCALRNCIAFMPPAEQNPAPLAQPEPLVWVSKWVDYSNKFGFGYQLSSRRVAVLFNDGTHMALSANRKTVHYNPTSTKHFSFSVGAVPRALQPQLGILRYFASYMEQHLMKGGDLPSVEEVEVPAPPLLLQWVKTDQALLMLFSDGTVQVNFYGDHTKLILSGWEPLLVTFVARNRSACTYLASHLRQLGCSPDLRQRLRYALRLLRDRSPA

Aurora kinase B = Aurora kinase B (Homo sapiens, UniProt Q96GD4); assay: Inhibition of AURKB (unknown origin) by FRET-based homogeneous assay
Cytochrome P450 1A2 = molecular target: T4, Cytochrome P450 1A2 (Homo sapiens, UniProt P05177); assay: as §1; assay type: ADME
T4 sequence (P05177 whole entry): T3 sequence (P05177 whole entry)

Cytochrome P450 2C9 = Cytochrome P450 2C9 (Homo sapiens, UniProt P11712); assay: Inhibition of CYP2C9 (unknown origin) using MFC substrate after 45 mins by fluorescence assay; assay type: ADME
Cytochrome P450 2C19 = Cytochrome P450 2C19 (Homo sapiens, UniProt P33261); assay: Inhibition of CYP2C19 (unknown origin) using MFC substrate after 30 mins by fluorescence assay; assay type: ADME
Chain of Cytochrome P450 2C19 (P33261 whole entry): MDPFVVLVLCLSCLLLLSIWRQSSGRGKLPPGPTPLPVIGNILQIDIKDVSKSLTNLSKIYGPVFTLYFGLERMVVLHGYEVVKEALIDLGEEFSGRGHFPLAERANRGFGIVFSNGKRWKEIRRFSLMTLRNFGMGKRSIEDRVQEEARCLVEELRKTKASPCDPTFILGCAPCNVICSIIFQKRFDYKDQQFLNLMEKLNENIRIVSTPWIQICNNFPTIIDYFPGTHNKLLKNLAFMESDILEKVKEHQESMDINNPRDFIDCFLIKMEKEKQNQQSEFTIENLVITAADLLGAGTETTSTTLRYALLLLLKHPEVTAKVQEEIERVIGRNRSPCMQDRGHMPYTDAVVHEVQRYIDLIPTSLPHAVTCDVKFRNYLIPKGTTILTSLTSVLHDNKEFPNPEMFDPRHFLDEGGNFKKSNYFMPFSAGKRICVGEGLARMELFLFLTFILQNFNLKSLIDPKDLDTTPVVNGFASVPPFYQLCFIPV

MCF7 = assay: Cytotoxicity against human MCF7 cells after 5 days by SRB assay; assay type: functional; settings: MCF7, 120 h
MDA-MB-468 [13] = assay: Cytotoxicity against human MDA-MB-468 cells after 5 days by SRB assay; assay type: functional; settings: MDA-MB-468, 120 h
[14] = AUC in SCID mouse at 50 mg/kg, ip after 8 hrs by LCMS/MS method; assay type: ADME, organism-based; parameters: time < 8 hr, dose 50 mg/kg, route intraperitoneal; settings: plasma
MDA-MB-231 = assay: Cytotoxicity against human MDA-MB-231 cells after 5 days by SRB assay; assay type: functional; settings: MDA-MB-231, 120 h
[15] = Cytotoxicity against human SKBR3 cells after 5 days by SRB assay; assay type: functional; settings: SK-BR-3, 120 h
[16] = Cmax in SCID mouse at 25 mg/kg, po by LCMS/MS method; assay type: ADME, organism-based; parameters: dose 25 mg/kg, route oral; settings: in vivo
[17] = AUC in SCID mouse at 25 mg/kg, po by LCMS/MS method; assay type: ADME, organism-based; parameters: dose 25 mg/kg, route oral; settings: plasma
Mus musculus = assay: Toxicity in human MDA-MB-468 cells xenografted mouse assessed as reduction in body weight at 25 mg/kg, po QD for 21 days; assay type: organism-based; parameters: dose 25 mg/kg, route oral; settings: in vivo, 504 h
CYP2D6 = CYP2D6 (Homo sapiens, UniProt P10635); assay: as §2; assay type: ADME; settings: probe AMMC
Chain of CYP2D6 (P10635 whole entry): as the sequence (P10635 whole entry) above

IC50 [2] [µM] | IC50 [4] [µM] | IC50 at 15 min (CYP1A2) [µM] | IC50 (Cytochrome P450 2D6) [µM] | IC50 (Cytochrome P450 3A4) [µM] | solubility [5] [µg/mL] | fraction unbound [6] | half-life at 1 µM [7] [min] | half-life at 1 µM [8] [min] | Cmax [9] [ng/mL] | IC50 [10] [µM] | IC50 [11] [µM] | IC50 [12] [µM] | IC50 (Cytochrome P450 2C9) [µM] | IC50 (Cytochrome P450 2C19) [µM] | AUC at 8 h [14] [ng·h/mL] | SMILES | GI50 (MCF7) [µM] | other results
 |  |  |  |  |  |  |  |  |  |  |  |  |  |  |  | Cc1cc(Nc2cc(N3CCN(C)CC3)nc(Sc3ccc(NC(=O)C4CC4)cc3)n2)n[nH]1 |  | TGI (MDA-MB-468 [1]): 73%
0.0024 | 0.034 | > 10 | 20 | 1 | 0.21 (≈ 0.576 µM) | 0.011 | 6 | 29 | < 10 | > 100 | > 100 | > 100 |  |  |  | O=C1Nc2ccccc2/C1=C\c1ccc2c(/C=C/c3ccncc3)n[nH]c2c1 |  | IC50 [3]: 0.035 µM; IC50 (Aurora kinase B): 0.024 µM
 | 0.11 |  | 3.1 | > 10 | 1.7 (≈ 3.91 µM) | 0.053 | 13 | > 60 | 2600 | > 100 | > 100 | > 100 | > 1 | > 1 | 7200 | CN(C)Cc1ccc(/C=C/c2n[nH]c3cc([C@@H]4C[C@@]45C(=O)Nc4ccccc45)ccc23)cc1 (relative stereo) | < 0.01 | IC50 (Cytochrome P450 1A2): > 10 µM; GI50 (MDA-MB-468 [13]): < 0.01 µM; GI50 (MDA-MB-231): < 0.01 µM; GI50 [15]: 17.8 µM; Cmax [16]: 290 ng/mL; AUC [17]: 310 ng·h/mL; Activity (Mus musculus): Non-toxic
0.0073 |  | > 10 |  | > 1 | < 0.1 | 0.009 | 2 | 14 | 90 |  |  |  | 1.6 | 0.8 | 190 | COc1ccc2c(c1)/C(=C\c1ccc3c(/C=C/c4ccc(N5CCN(C)CC5)nc4)n[nH]c3c1)C(=O)N2 | < 0.01 | IC50 at 45 min (CYP2D6): > 10 µM
